# Earlier results in patent publication CN104352465A, “一种不含二氧化硅的琥珀酸普芦卡必利药物组合物及其制备方法” (CHENGDU SINO-STRONG PHARMACEUTICAL Co Ltd, priority 2014, dated 2015).
# Settings: within shelf life, with the diluent lactose monohydrate
smiles,measurement,value
"COCCCN1CCC(NC(=O)c2cc(Cl)c(N)c3c2OCC3)CC1.O=C(O)CCC(=O)O [琥珀酸普芦卡必利, 4-氨基-5-氯-2,3-二氢-N-[1-(3-甲氧基丙基)-4-哌啶基]-7-苯并呋喃甲酰胺丁二酸盐]",adduct formation with lactose monohydrate,形成乳糖加合物
